Death and IC50 data for 25 molecules are collected here from patent publication US6541480B2, “1-aryl-1,8-naphthylidin-4-one derivative as type IV phosphodiesterase inhibitor” (Suntory Limited, priority 1997, dated 2003).

The structures appear in SMILES notation. Where a name gives a salt, the structure may show the parent alone.

For orientation: IC50 means the point on the concentration scale where inhibition reaches its midpoint. A high value points to weaker potency in that assay.

A short description of data set [1]: 28-day repeated administration toxicity in mice. The format is in vivo. As to conditions: 10 mg/kg per day administered for 28 days to mice.
For data set [2], the system named is type IV phosphodiesterase. The data set is described as follows: Type IV phosphodiesterase inhibiting activity (3H-cAMP hydrolysis, PDE IV fraction from U937 cells). The format is biochemical. As to conditions: PDE IV fraction from human U937 cells, 30° C., 30 minutes.
The test system of data set [3] is TNF-α production by LPS stimulated mouse peritoneal macrophages. The data set is described as follows: TNF-α production inhibitory activity by LPS stimulated macrophages (ELISA). In kind it is cell-based. As to conditions: LPS 10 μg/ml, 8 hours. The procedure: (1) Method of Measurement of TNF-α Production Inhibitory Activity by LPS Stimulated Macrophages
The following assay was used to evaluate the ability of the compound of the present invention to suppress TNF-α production by LPS stimulated macrophages according to Immuno pharmacol. 29, 121-127 (1995).
1) 6 to 10 week old female BALB/c mice were used, 2 ml portions of thioglycolate were intraperitoneally administered, and the abdominal cavities were washed by 10 ml of PBS after 4 days, whereby 1 to 2×10^7 peritoneal cells were obtained per mouse. These were suspended in a hemocyte solution (0.75% ammonium chloride, 17 mM tris-hydrochlorate buffer, pH7.2), centrifuged, then resuspended in an RPMI1640 medium including 10% fetal calf serum and seeded in a 96-well cell culture plate at a density of 1×10^5 cells/50 μl/well. Since these cells adhered strongly to the tissue culture plate and were positive in nonspecific esterase staining, they were used for the test as mouse peritoneal macrophages. Mouse peritoneal macrophages were precultured overnight at 37° C. in 5% CO2 for the experiment.
2) E. Coli (serum type 055:B5) derived LPS was dissolved in PBS in a concentration of 1 mg/ml, then sterilized by filtration. The test compound was dissolved in DMSO to make a 1000-fold concentration solution of the final concentration of use. 10 μl of the above LPS stock solution (final concentration 10 μg/ml) and 1 μl of the tested substance stock solution were added and mixed in 0.5 ml of RPMI1640 medium containing 10% fetal calf serum. This was added to the above cells at 50 μl/well and cultured for 8 hours. The cultured supernatant was recovered from each well and the TNF-α concentration was measured by the ELISA method (Cytoscreen® Immunoassay Kit Mouse TNF-α, BioSource International).

On to `O=C(Nc1ccncc1)c1cn(-c2ccc(F)cc2)c2ncccc2c1=O` [Example 103, 1-(4-Fluorophenyl)-N-(4-pyridyl)-1,4-dihydro[1,8]naphthylidin-4-one-3-carboxamide], for which the death entry in data set [1] was “no death”. Besides, the IC50 turned out to be 59 nM in data set [2] and 100 nM in data set [3] (Peritoneal macrophage).

As to `O=C(Nc1c(Cl)cncc1Cl)c1cn(-c2ccc(F)cc2)c2ncccc2c1=O` [Example 106, N-(3,5-Dichloropyridin-4-yl)-1-(4-fluorophenyl)-1,4-dihydro[1,8]naphthylidin-4-one-3-carboxamide], in data set [1], the death result is “no death”. The results for the IC50 in data set [2] and in data set [3] were 0.4 nM and 10 nM, respectively.

Consider `O=C(Nc1c(Cl)cccc1Cl)c1cn(-c2ccc(F)cc2)c2ncccc2c1=O` [Example 99, N-(2,6-Dichlorophenyl)-1-(4-fluorophenyl)-1,4-dihydro[1,8]naphthylidin-4-one-3-carboxamide], for which the death result in data set [1] is “no death”. Moreover, the IC50 in data set [2] worked out at 3.4 nM; in data set [3] (Peritoneal macrophage), 25 nM.

For the molecule `O=C(Nc1cccnc1)c1cn(-c2ccc(F)cc2)c2ncccc2c1=O` [Example 102, 1-(4-Fluorophenyl)-N-(3-pyridyl)-1,4-dihydro[1,8]naphthylidin-4-one-3-carboxamide], the death result in data set [1] is “no death”. Besides, the results for the IC50 in data set [2] and in data set [3] (Peritoneal macrophage) were 35 nM and 100 nM, respectively.

As for `O=C(Nc1c(Cl)cncc1Cl)c1cn(-c2ccncc2)c2ncccc2c1=O` [Example 141, N-(3,5-Dichloropyridin-4-yl)-1-(4-pyridyl)-1,4-dihydro[1,8]naphthylidin-4-one-3-carboxamide], the death entry in data set [1] was “no death”. For the same molecule, the IC50 in data set [2] was 0.5 nM; in data set [3] (Peritoneal macrophage), 1 nM.

On to `O=C(Nc1cccc(O)c1)c1cn(-c2ccc(F)cc2)c2ncccc2c1=O` [Example 74, 1-(4-Fluorophenyl)-N-(3-hydroxythenyl)-1,4-dihydro[1,8]naphthylidin-4-one-3-carboxamide], for which the values for the IC50 in data set [2] and in data set [3] (Peritoneal macrophage) were 420 nM and 400 nM, respectively.

For `O=C(Nc1c(Cl)cncc1Cl)c1cn(-c2ccc(Cl)cc2)c2ncccc2c1=O` [Example 125, 1-(4-Chlorophenyl)-N-(3,5-dichloropyridin-4-yl)-1,4-dihydro[1,8]naphthylidin-4-one-3-carboxamide], the IC50 in data set [2] came to 0.8 nM; in data set [3] (Peritoneal macrophage), 0.5 nM.

With `O=C(NCc1ccncc1)c1cn(-c2ccc(F)cc2)c2ncccc2c1=O` [Example 64, 1-(4-Fluorophenyl)-N-(4-pyridyl)methyl-1,4-dihydro[1,8]naphthylidin-4-one-3-carbdxamide], the values for the IC50 in data set [2] and in data set [3] (Peritoneal macrophage) were 120 nM and 100 nM, respectively.

`O=C(NCc1ccccc1)c1cn(-c2ccc(F)cc2)c2ncccc2c1=O` [Example 61, N-benzyl-1-(4-fluorophenyl)-1,4-dihydro[1,8]naphthylidin-4-one-3-carboxamide]: the IC50 in data set [2] came out at 390 nM; in data set [3] (Peritoneal macrophage), 1000 nM.

For `Nc1ccc(-n2cc(C(=O)Nc3ccncc3)c(=O)c3cccnc32)cn1` [Example 143, 1-(2-Aminopyridin-5-yl)-N-(4-pyridyl)-1,4-dihydro[1,8]naphthylidin-4-one-3-carboxamide hydrochloride], the IC50 was 140 nM in data set [2] and 150 nM in data set [3] (Peritoneal macrophage).

As to `Nc1ccccc1NC(=O)c1cn(-c2ccc(F)cc2)c2ncccc2c1=O` [Example 90, N-(2-aminophenyl)-1-(4-fluorophenyl)-1,4-dihydro[1,8]naphthylidin-4-one-3-carboxamide], the figures for the IC50 in data set [2] and in data set [3] (Peritoneal macrophage) were 96 nM and 500 nM, respectively.

Turning to `Cc1ccccc1NC(=O)c1cn(-c2ccc(F)cc2)c2ncccc2c1=O` [Example 69, 1-(4-Fluorophenyl)-N-(2-tolyl)-1,4-dihydro[1,8]naphthylidin-4-one-3-carboxamide], the IC50 in data set [2] came to 13 nM; in data set [3] (Peritoneal macrophage) it was 100 nM.

Regarding `CC(=O)c1ccccc1NC(=O)c1cn(-c2ccc(F)cc2)c2ncccc2c1=O` [Example 80, N-(2-acetophenyl)-1-(4-fluorophenyl)-1,4-dihydro[1,8]naphthylidin-4-one-3-carboxamide], the IC50 was found to be 110 nM in data set [2] and 100 nM in data set [3] (Peritoneal macrophage).

Consider `O=C(Nc1c(Cl)ncnc1Cl)c1cn(-c2ccc(F)cc2)c2ncccc2c1=O` [Example 108, 1-(4-Fluorophenyl)-N-(4,6-dichloropyrimidine-5-yl)-1,4-dihydro[1,8]naphthylidin-4-one-3-carboxamide], for which the IC50 in data set [2] turned out to be 4.6 nM; in data set [3] (Peritoneal macrophage), 1000 nM.

Take `Nc1ccc(NC(=O)c2cn(-c3ccc(F)cc3)c3ncccc3c2=O)cc1` [Example 92, N-(4-aminophenyl)-1-(4-fluorophenyl)-1,4-dihydro[1,8]naphthylidin-4-one-3-carboxamide]: the values for the IC50 in data set [2] and in data set [3] (Peritoneal macrophage) were 140 nM and 200 nM, respectively.

For `O=C(Nc1ccncc1)c1cn(-c2ccncc2)c2ncccc2c1=O` [Example 139, 1,N-bis-(4-Pyridyl)-1,4-dihydro[1,8]naphthylidin-4-one-3-carboxamide], the death entry in data set [1] is recorded as “no death”. The half-inhibitory concentration (IC50) in data set [2] stood at 70 nM; in data set [3] (Peritoneal macrophage), 100 nM.

Consider `Cc1cnccc1NC(=O)c1cn(-c2ccc(F)cc2)c2ncccc2c1=O` [Example 104, 1-(4-Fluorophenyl)-N-(3-methylpyridin-4-yl)-1,4-dihydro[1,8]naphthylidin-4-one-3-carboxamide], for which the IC50 amounted to 19 nM in data set [2] and 0.3 nM in data set [3] (Peritoneal macrophage).

As to `O=C(Nc1cccc([N+](=O)[O-])c1)c1cn(-c2ccc(F)cc2)c2ncccc2c1=O` [Example 94, 1-(4-Fluorophenyl)-N-(3-nitrophenyl)-1,4-dihydro[1,8]naphthylidin-4-one-3-carboxamide], the figures for the IC50 in data set [2] and in data set [3] (Peritoneal macrophage) were 350 nM and 500 nM, respectively.

Consider `O=C(Nc1cccnc1)c1cn(-c2ccncc2)c2ncccc2c1=O` [Example 138, N-(3-Pyridyl)-1-(4-pyridyl)-1,4-dihydro[1,8]naphthylidin-4-one-3-carboxamide], for which the IC50 in data set [2] was 44 nM; in data set [3] (Peritoneal macrophage) it was 400 nM.

As to `Cc1cccc(C)c1NC(=O)c1cn(-c2ccc(F)cc2)c2ncccc2c1=O` [Example 72, 1-(4-Fluorophenyl)-N-(2,6-xylidyl)-1,4-dihydro[1,8]naphthylidin-4-one-3-carboxamide], the IC50 amounted to 180 nM in data set [2] and 10 nM in data set [3] (Peritoneal macrophage).

Consider `NC(=O)c1cn(-c2ccc(F)cc2)c2ncccc2c1=O` [Example 51, 1-(4-Fluorophenyl)-1,4-dihydro[1,8]naphthylidin-4-one-3-carboxamide], for which the values for the IC50 in data set [2] and in data set [3] (Peritoneal macrophage) were 1400 nM and 400 nM, respectively.

Regarding `O=C(Nc1cccc2ncccc12)c1cn(-c2ccc(F)cc2)c2ncccc2c1=O` [Example 113, 1-(4-Fluorophenyl)-N-(5-quinolyl)-1,4-dihydro [1,8]naphthylidin-4-one-3-carboxamide], the IC50 in data set [2] was found to be 44 nM; in data set [3] (Peritoneal macrophage), 60 nM.

For the molecule `Nc1cccc(NC(=O)c2cn(-c3ccc(F)cc3)c3ncccc3c2=O)c1` [Example 91, N-(3-aminophenyl)-1-(4-fluorophenyl)-1,4-dihydro[1,8]naphthylidin-4-one-3-carboxamide], the IC50 in data set [2] worked out at 52 nM; in data set [3] (Peritoneal macrophage) it was 100 nM.

As for `CC(=O)c1cccc(NC(=O)c2cn(-c3ccc(F)cc3)c3ncccc3c2=O)c1` [Example 81, N-(3-acetophenyl)-1-(4-fluorophenyl)-1,4-dihydro[1,8]naphthylidin-4-one-3-carboxamide], the IC50 was 110 nM in data set [2] and 500 nM in data set [3] (Peritoneal macrophage).

`O=C(Nc1c(Cl)cncc1Cl)c1cn(-c2ccccn2)c2ncccc2c1=O` [Example 133]: the figures for the IC50 in data set [2] and in data set [3] were 6.4 nM and 4 nM, respectively.
